Experimental data from the kinase profiling compilation of Christmann-Franck et al. (2016).

Key:
Test in all cases: KINOMEscan competition binding
Settings in all cases: compound 10.0 µM
ACVRL1 (human) = ACVRL1 (human) (UniProt P37023)
ADCK3 (human) = ADCK3 (human) (UniProt Q8NI60)
ADCK4 (human) = ADCK4 (human) (UniProt Q96D53)
[1] = test system: BRAF (human), P15056 [V600E]
CAMK4 (human) = CAMK4 (human) (UniProt Q16566)
CDK11B (human) = CDK11B (human) (UniProt P21127)
CSK (human) = CSK (human) (UniProt P41240)
CSNK1G3 (human) = CSNK1G3 (human) (UniProt Q9Y6M4)
CSNK2A1 (human) = CSNK2A1 (human) (UniProt P68400)
DCLK2 (human) = DCLK2 (human) (UniProt Q8N568)
[2] = test system: EGFR (human), P00533 [752-759 del]
[3] = test system: EGFR (human), P00533 [L861Q]
EPHB1 (human) = EPHB1 (human) (UniProt P54762)
EPHB6 (human) = EPHB6 (human) (UniProt O15197)
FLT3 (human) = FLT3 (human) (UniProt P36888)
GRK7 (human) = GRK7 (human) (UniProt Q8WTQ7)
ITK (human) = ITK (human) (UniProt Q08881)
[4] = molecular target: JAK3 JH1 catalytic (human) (UniProt P52333)
[5] = test system: KIT (human), P10721 [D816V]
LIMK1 (human) = LIMK1 (human) (UniProt P53667)
LRRK2 (human) = LRRK2 (human) (UniProt Q5S007)
MAP2K6 (human) = MAP2K6 (human) (UniProt P52564)
MAP4K2 (human) = MAP4K2 (human) (UniProt Q12851)
MAP4K5 (human) = MAP4K5 (human) (UniProt Q9Y4K4)
MAPK8 (human) = MAPK8 (human) (UniProt P45983)
MARK2 (human) = MARK2 (human) (UniProt Q7KZI7)
MAST1 (human) = MAST1 (human) (UniProt Q9Y2H9)
NEK2 (human) = NEK2 (human) (UniProt P51955)
NIM1 (human) = NIM1 (human) (UniProt Q8IY84)
NTRK3 (human) = NTRK3 (human) (UniProt Q16288)
PDPK1 (human) = PDPK1 (human) (UniProt O15530)
PIM1 (human) = PIM1 (human) (UniProt P11309)
PIM3 (human) = PIM3 (human) (UniProt Q86V86)
PLK3 (human) = PLK3 (human) (UniProt Q9H4B4)
RIPK2 (human) = RIPK2 (human) (UniProt O43353)
SGK3 (human) = SGK3 (human) (UniProt Q96BR1)
SIK2 (human) = SIK2 (human) (UniProt Q9H0K1)
SIK3 (human) = SIK3 (human) (UniProt Q9Y2K2)
STK32A (human) = STK32A (human) (UniProt Q8WU08)
SYK (human) = SYK (human) (UniProt P43405)
TESK1 (human) = TESK1 (human) (UniProt Q15569)
ZAP70 (human) = ZAP70 (human) (UniProt P43403)

Chain of MAST1 (human) (Q9Y2H9 whole entry, looked up): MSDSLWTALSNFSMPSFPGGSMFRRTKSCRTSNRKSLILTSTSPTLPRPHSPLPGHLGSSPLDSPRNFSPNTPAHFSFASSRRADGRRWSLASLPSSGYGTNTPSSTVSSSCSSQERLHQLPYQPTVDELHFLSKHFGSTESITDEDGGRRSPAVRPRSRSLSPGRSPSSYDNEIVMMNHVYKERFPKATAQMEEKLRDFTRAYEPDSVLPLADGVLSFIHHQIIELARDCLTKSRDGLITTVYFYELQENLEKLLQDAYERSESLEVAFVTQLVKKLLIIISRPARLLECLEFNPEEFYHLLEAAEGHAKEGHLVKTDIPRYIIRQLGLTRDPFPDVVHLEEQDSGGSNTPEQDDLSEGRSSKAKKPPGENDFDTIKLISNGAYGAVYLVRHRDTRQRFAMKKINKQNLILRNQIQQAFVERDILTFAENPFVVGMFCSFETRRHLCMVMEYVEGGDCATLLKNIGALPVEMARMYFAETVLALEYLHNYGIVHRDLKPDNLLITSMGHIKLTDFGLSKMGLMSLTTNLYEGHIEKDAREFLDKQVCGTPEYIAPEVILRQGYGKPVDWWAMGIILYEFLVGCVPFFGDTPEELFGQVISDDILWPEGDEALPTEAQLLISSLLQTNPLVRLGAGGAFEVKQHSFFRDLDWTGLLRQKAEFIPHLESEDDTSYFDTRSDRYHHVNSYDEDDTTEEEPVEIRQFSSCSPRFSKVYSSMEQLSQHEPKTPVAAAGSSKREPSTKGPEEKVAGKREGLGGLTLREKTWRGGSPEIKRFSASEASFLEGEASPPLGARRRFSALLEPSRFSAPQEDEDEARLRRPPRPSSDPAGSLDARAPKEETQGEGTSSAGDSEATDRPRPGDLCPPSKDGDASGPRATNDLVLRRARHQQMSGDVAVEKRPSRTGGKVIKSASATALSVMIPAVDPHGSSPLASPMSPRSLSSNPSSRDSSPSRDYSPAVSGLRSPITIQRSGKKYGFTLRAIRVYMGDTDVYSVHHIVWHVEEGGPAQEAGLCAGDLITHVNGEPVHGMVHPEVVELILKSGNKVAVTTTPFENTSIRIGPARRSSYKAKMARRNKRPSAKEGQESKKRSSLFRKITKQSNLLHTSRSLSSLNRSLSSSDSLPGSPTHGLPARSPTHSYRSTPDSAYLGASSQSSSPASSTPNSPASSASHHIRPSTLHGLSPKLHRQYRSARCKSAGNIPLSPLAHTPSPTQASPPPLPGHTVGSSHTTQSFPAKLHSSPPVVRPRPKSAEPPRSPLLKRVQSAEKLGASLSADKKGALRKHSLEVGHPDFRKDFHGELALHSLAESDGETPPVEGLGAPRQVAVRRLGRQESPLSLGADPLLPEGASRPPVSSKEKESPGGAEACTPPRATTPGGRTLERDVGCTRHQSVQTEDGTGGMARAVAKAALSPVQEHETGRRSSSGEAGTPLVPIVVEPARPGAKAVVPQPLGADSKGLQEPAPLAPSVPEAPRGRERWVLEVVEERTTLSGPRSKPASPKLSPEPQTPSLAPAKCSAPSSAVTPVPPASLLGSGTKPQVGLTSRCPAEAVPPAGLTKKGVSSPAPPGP
Chain of LRRK2 (human) (Q5S007 whole entry, looked up): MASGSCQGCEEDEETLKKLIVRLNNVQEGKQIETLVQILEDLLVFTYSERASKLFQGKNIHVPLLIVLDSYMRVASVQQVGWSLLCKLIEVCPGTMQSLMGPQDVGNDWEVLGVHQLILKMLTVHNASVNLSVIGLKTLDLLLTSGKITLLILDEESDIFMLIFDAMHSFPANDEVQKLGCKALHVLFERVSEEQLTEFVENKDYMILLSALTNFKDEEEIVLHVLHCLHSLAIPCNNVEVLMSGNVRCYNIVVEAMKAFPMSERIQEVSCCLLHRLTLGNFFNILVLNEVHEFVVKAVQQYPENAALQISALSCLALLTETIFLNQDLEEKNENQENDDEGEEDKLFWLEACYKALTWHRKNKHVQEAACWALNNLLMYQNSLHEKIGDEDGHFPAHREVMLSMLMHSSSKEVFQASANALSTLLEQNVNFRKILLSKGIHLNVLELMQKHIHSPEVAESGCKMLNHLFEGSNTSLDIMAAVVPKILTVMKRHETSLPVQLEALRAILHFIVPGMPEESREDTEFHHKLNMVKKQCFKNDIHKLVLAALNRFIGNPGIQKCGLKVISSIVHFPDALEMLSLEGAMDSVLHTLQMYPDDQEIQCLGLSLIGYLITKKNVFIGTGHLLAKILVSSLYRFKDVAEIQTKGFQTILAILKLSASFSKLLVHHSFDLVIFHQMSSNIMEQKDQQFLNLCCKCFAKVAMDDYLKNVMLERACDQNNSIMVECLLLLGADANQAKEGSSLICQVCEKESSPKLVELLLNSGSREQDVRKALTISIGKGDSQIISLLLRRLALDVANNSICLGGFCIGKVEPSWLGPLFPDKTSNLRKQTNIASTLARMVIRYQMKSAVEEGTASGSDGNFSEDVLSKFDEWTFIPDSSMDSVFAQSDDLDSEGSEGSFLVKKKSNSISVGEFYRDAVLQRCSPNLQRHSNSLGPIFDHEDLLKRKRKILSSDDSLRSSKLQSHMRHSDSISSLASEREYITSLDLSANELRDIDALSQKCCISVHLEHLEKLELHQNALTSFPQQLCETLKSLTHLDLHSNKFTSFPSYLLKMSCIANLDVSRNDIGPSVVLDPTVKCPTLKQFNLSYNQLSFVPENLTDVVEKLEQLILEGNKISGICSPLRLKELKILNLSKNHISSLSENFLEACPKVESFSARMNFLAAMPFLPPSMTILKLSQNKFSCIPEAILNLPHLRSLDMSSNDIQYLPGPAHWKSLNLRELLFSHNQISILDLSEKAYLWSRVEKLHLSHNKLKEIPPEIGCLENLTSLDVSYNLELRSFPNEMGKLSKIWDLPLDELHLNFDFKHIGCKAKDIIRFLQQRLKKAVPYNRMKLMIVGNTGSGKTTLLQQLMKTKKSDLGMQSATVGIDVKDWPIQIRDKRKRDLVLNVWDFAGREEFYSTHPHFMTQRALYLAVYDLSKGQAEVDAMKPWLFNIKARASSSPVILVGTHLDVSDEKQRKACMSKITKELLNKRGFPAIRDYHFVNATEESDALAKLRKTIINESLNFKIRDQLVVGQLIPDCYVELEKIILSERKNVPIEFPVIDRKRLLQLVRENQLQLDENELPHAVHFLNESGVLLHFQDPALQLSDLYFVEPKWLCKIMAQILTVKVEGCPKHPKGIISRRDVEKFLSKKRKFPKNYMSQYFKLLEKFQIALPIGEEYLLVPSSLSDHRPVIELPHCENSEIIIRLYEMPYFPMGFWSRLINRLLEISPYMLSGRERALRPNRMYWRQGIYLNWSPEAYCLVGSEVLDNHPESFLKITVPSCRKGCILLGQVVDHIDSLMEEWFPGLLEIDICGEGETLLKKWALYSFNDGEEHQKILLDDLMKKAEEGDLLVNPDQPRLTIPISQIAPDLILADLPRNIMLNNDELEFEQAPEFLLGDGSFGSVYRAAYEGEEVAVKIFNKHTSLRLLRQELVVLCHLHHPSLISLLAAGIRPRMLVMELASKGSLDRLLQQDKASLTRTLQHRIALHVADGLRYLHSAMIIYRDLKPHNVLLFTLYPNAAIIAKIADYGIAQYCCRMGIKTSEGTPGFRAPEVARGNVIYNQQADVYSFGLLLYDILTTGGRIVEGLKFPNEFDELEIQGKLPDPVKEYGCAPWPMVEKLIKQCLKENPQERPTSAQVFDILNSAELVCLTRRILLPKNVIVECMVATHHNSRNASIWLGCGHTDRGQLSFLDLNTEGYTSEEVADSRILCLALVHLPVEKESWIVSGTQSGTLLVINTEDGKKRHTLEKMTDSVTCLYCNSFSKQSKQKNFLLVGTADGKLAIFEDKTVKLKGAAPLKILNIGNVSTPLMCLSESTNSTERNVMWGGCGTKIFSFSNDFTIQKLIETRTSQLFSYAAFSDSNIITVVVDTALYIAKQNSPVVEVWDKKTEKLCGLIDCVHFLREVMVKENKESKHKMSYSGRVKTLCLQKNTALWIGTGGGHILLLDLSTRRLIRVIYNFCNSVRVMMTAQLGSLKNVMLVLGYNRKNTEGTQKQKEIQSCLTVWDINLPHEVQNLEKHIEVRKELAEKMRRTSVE
Chain of CSNK1G3 (human) (Q9Y6M4 whole entry, looked up): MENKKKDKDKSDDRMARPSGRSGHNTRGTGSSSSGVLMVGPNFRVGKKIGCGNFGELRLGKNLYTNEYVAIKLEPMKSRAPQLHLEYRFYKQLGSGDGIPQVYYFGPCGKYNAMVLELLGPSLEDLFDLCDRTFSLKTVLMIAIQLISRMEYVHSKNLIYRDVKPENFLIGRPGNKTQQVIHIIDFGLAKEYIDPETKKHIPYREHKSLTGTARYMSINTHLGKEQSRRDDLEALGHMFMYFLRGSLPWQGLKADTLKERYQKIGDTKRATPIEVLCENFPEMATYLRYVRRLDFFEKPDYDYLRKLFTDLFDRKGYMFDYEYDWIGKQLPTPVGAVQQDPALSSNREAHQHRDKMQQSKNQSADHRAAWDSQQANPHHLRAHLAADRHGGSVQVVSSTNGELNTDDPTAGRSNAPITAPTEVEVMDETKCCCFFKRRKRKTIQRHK
Chain of PDPK1 (human) (O15530 whole entry, looked up): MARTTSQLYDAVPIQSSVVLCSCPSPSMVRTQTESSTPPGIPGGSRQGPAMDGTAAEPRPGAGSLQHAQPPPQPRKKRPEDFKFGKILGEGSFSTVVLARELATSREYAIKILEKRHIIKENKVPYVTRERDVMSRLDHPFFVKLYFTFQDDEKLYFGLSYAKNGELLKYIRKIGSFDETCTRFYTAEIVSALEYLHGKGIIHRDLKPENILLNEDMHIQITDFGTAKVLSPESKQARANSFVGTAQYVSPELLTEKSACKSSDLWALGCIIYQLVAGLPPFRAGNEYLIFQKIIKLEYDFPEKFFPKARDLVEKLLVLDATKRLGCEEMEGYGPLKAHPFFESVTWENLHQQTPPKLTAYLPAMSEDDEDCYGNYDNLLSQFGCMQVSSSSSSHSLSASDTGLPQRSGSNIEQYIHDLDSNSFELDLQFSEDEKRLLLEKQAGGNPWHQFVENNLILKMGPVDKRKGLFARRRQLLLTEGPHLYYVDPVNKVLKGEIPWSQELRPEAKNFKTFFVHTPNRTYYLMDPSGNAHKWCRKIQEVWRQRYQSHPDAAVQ

Cc1cc([C@@H](C)Nc2ccccc2C(=O)O)c2nc(N3CCOCC3)cc(=O)n2c1
kinase still bound, per cent of control (ACVRL1 (human)): 100%
kinase still bound, per cent of control (ADCK3 (human)): 70%
kinase still bound, per cent of control (ADCK4 (human)): 95%
kinase still bound, per cent of control [1]: 80%
kinase still bound, per cent of control (CAMK4 (human)): 100%
kinase still bound, per cent of control (CDK11B (human)): 100%
kinase still bound, per cent of control (CSK (human)): 98%
kinase still bound, per cent of control (CSNK1G3 (human)): 95%
kinase still bound, per cent of control (CSNK2A1 (human)): 66%
kinase still bound, per cent of control (DCLK2 (human)): 100%
kinase still bound, per cent of control [2]: 100%
kinase still bound, per cent of control [3]: 76%
kinase still bound, per cent of control (EPHB1 (human)): 99%
kinase still bound, per cent of control (EPHB6 (human)): 40%
kinase still bound, per cent of control (FLT3 (human)): 4.2%
kinase still bound, per cent of control (GRK7 (human)): 100%
kinase still bound, per cent of control (ITK (human)): 100%
kinase still bound, per cent of control [4]: 100%
kinase still bound, per cent of control [5]: 100%
kinase still bound, per cent of control (LIMK1 (human)): 100%
kinase still bound, per cent of control (LRRK2 (human)): 97%
kinase still bound, per cent of control (MAP2K6 (human)): 91%
kinase still bound, per cent of control (MAP4K2 (human)): 97%
kinase still bound, per cent of control (MAP4K5 (human)): 92%
kinase still bound, per cent of control (MAPK8 (human)): 100%
kinase still bound, per cent of control (MARK2 (human)): 100%
kinase still bound, per cent of control (MAST1 (human)): 54%
kinase still bound, per cent of control (NEK2 (human)): 100%
kinase still bound, per cent of control (NIM1 (human)): 100%
kinase still bound, per cent of control (NTRK3 (human)): 75%
kinase still bound, per cent of control (PDPK1 (human)): 100%
kinase still bound, per cent of control (PIM1 (human)): 100%
kinase still bound, per cent of control (PIM3 (human)): 100%
kinase still bound, per cent of control (PLK3 (human)): 94%
kinase still bound, per cent of control (RIPK2 (human)): 52%
kinase still bound, per cent of control (SGK3 (human)): 100%
kinase still bound, per cent of control (SIK2 (human)): 90%
kinase still bound, per cent of control (SIK3 (human)): 87%
kinase still bound, per cent of control (STK32A (human)): 100%
kinase still bound, per cent of control (SYK (human)): 90%
kinase still bound, per cent of control (TESK1 (human)): 100%
kinase still bound, per cent of control (ZAP70 (human)): 72%
